Consider 16 compounds from BindingDB's records for doi:10.1016/j.bmcl.2018.05.027 (Bristol-Myers Squibb Research and Development, 2018).

The nature of test [1]: Inhibition of HIV-1 integrase strand transfer activity assessed as reduction in viral replication in presence of 10% fetal bovine serum.
The nature of test [2]: Inhibition of HIV-1 integrase strand transfer activity assessed as reduction in viral replication in presence of 10% fetal bovine serum and 15 mg/mL human serum albumin.
Test [3] in a line: Inhibition of HIV-1 integrase strand transfer activity assessed as reduction in viral replication in presence of 40% human serum.

Take `CN(C)S(=O)(=O)c1cc(F)ccc1CNC(=O)c1nc2n(c(=O)c1O)CCCC21CCCC1`: the EC50 (in general, the midpoint of the concentration-response curve) was 3 nM in test [1] and 27 nM in test [2].
On to `O=C(NCc1ccc(F)cc1)c1nc2n(c(=O)c1O)CCCC21CCCC1`, for which the concentration giving a half-maximal response (EC50) in test [1] amounted to 2 nM; in test [2] it was 19 nM.
Turning to `CC1(C)OCCn2c1nc(C(=O)NCc1ccc(F)cc1Cl)c(O)c2=O`, the EC50 in test [1] was found to be 53 nM; in test [2] it was 857 nM.
Consider `Cc1cc(CNC(=O)c2nc3n(c(=O)c2O)CCOC3(C)C)ccc1F`, for which the results for the half-maximal effective concentration (EC50) in test [1] and in test [2] were 1 nM and 90 nM, respectively.
In the case of `Cc1cc(F)ccc1CNC(=O)c1nc2n(c(=O)c1O)CCOC2(C)C`, the EC50 was 21 nM in test [1] and 557 nM in test [2].
As to `CC1(C)OCCn2c1nc(C(=O)NCc1ccc(F)c(Cl)c1)c(O)c2=O`, the EC50 worked out at 2 nM in test [1] and 84 nM in test [2].
For `CC1(C)OCCn2c1nc(C(=O)NCc1ccc(F)cc1)c(O)c2=O`, the concentration for a half-maximal effect (EC50) in test [1] is 2 nM; in test [2], 17 nM; in test [3], 25 nM.
For the compound `O=C(NCc1ccc(F)cc1N1CCCCS1(=O)=O)c1nc2n(c(=O)c1O)CCCC21CCCC1`, the EC50 is 2 nM in test [1] and 21 nM in test [2].
The corresponding values for `O=C(NCc1ccc(F)cc1S(=O)(=O)N1CCOCC1)c1nc2n(c(=O)c1O)CCCC21CCCC1` are 3 nM and 14 nM.
In the same order, the values of `CS(=O)(=O)c1cc(F)ccc1CNC(=O)c1nc2n(c(=O)c1O)CCCC21CCCC1` are 1 nM and 8 nM.
The corresponding values for `Cc1cc(CNC(=O)c2nc3n(c(=O)c2O)CCCC32CCCC2)ccc1F` are 5 nM and 149 nM.
`CC1(C)OCCn2c1nc(C(=O)NCc1ccc(F)cc1N1CCCCS1(=O)=O)c(O)c2=O`: the EC50 came to 2 nM in test [1] and 7 nM in test [2].
For the compound `CN(C)S(=O)(=O)c1c(CNC(=O)c2nc3n(c(=O)c2O)CCOC3(C)C)ccc(F)c1F`, the EC50 in test [1] amounted to 3 nM; in test [2], 12 nM.
`CC1(C)OCCn2c1nc(C(=O)NCc1ccc(F)cc1S(C)(=O)=O)c(O)c2=O`: the EC50 was determined as 3 nM in test [1] and 6 nM in test [2].
Take `CNC(=O)c1cc(F)ccc1CNC(=O)c1nc2n(c(=O)c1O)CCOC2(C)C`: the EC50 in test [1] was determined as 2 nM; in test [2], 3 nM.
The corresponding values for `CC1(C)OCCn2c1nc(C(=O)NCc1ccc(F)cc1N1CCOCC1)c(O)c2=O` are 2 nM and 19 nM.
